Results on 5 molecules are retold here after ChEMBL document CHEMBL1146562, “Turbinatine, a potential key intermediate in the biosynthesis of corynanthean-type indole alkaloids” (2003).

Experiment [1] has as its system Saccharomyces cerevisiae. The experiment in a line: DNA damaging activity in yeast RS 322YK mutant assessed as drug level required to produce 12 mm zone of inhibition. It is filed as functional.
Experiment [2] concerns Saccharomyces cerevisiae. The experiment in a line: DNA damaging activity in yeast RS 188N mutant assessed as drug level required to produce 12 mm zone of inhibition. The experiment is classed as functional.

On to `C=C[C@H]1[C@H](O[C@@H]2O[C@H](CO)[C@@H](O)[C@H](O)[C@H]2O)OC=C(C(=O)OC)[C@H]1C[C@@H]1N[C@@H](C(=O)O)Cc2c1[nH]c1ccccc21`, for which the figures for the IC12 in experiment [1] and in experiment [2] were 100 µg/mL and > 250 µg/mL, respectively.

Take `C/C=C(\C=O)[C@@H]1C[C@H]2c3[nH]c4ccccc4c3CCN2C=C1C(=O)OC` [ISOVALLESIACHOTAMINE]: the results for the IC12 in experiment [1] and in experiment [2] were 100 µg/mL and > 250 µg/mL, respectively.

With `C=C[C@H]1[C@H](O[C@@H]2O[C@H](CO)[C@@H](O)[C@H](O)[C@H]2O)OC=C(C(=O)OC)[C@H]1C[C@@H]1NCCc2c1[nH]c1ccccc21` [STRICTOSIDINE], the IC12 was 100 µg/mL in experiment [1] and > 250 µg/mL in experiment [2].

Take `C=C[C@H]1[C@@H](/C(=C/O)C(=O)OC)C[C@H]2c3[nH]c4ccccc4c3CCN2[C@H]1O[C@H]1O[C@@H](CO)[C@H](O)[C@@H](O)[C@@H]1O` [TURBINATINE]: the IC12 is 100 µg/mL in experiment [1] and > 250 µg/mL in experiment [2].

On to `C/C=C(/C=O)[C@@H]1C[C@H]2c3[nH]c4ccccc4c3CCN2C=C1C(=O)OC` [VALLESIACHOTAMINE], for which the IC12 in experiment [1] was 100 µg/mL; in experiment [2] it was > 250 µg/mL.
